# Experimental data: US20260317324A1, “BIFUNCTIONAL COMPOUNDS FOR DEGRADING BRAF VIA UBIQUITIN PROTEOSOME PATHWAY” (Nurix Therapeutics, Inc., priority 2023, published 2026)
# How the values were obtained:
# Assay type in all cases: cell-based
# BRAF D594G = target: T1, BRAF D594G (Homo sapiens, UniProt P15056, D594G); assay: BRAF HiBiT degradation assay, C-terminal HiBiT-tagged BRAF D594G overexpressed in HCT-116 BRAF−/− cells (clone 63), Nano-Glo HiBiT Lytic assay
# T1 construct: Horizon Discovery (HCT-116 BRAF−/− cells); host or cells: HCT-116 BRAF−/− cells, clone 63, lentiviral transduction
# Procedure, shortened: (§1)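 Degradation assay in HCT-116 BRAF−/− cells carrying lentiviral HiBiT-tagged mutant BRAF. The readout is % protein remaining across 1 μM to 0.01 nM compound, and DC50 marks 50% remaining.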
# BRAF G469A = target: T2, BRAF G469A (Homo sapiens, UniProt P15056, G469A); assay: BRAF HiBiT degradation assay, C-terminal HiBiT-tagged BRAF G469A overexpressed in HCT-116 BRAF−/− cells (clone 34), Nano-Glo HiBiT Lytic assay
# T2 construct: Horizon Discovery (HCT-116 BRAF−/− cells); host or cells: HCT-116 BRAF−/− cells, clone 34, lentiviral transduction
# Procedure, shortened: as §1
# BRAF G466V = target: T3, BRAF G466V (Homo sapiens, UniProt P15056, G466V); assay: BRAF HiBiT degradation assay, C-terminal HiBiT-tagged BRAF G466V overexpressed in HCT-116 BRAF−/− cells (clone 8), Nano-Glo HiBiT Lytic assay
# T3 construct: Horizon Discovery (HCT-116 BRAF−/− cells); host or cells: HCT-116 BRAF−/− cells, clone 8, lentiviral transduction
# Procedure, shortened: as §1
# BRAF V600E = target: T4, BRAF V600E (Homo sapiens, UniProt P15056, V600E); assay: BRAF HiBiT degradation assay, C-terminal HiBiT-tagged BRAF V600E A375 cells (clone 1F10), Nano-Glo HiBiT Lytic assay; conditions: for Dmax: A-375
# T4 construct: endogenous C-terminal HiBiT fusion tag on BRAF V600E allele; endogenous in cells; host or cells: A375 clone 1F10 (CRISPR-Cas9 knock-in of the HiBiT tag; parental A375 from ATCC)
# Procedure, shortened: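 Using CRISPR-engineered A375 cells that carry a C-terminal HiBiT tag on endogenous BRAF V600E, remaining protein was quantified by lytic luminescence relative to DMSO-treated cells, with wildtype A375 as the background control. DC50 denotes the concentration giving 50% degradation.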
# [1] = BRAF D594G (Class 3), HCT-116 BRAF−/− cells, DC50 at 50% degradation
# [2] = BRAF D594G (Class 3), HCT-116 BRAF−/− cells, observed Dmax relative to DMSO control
# [3] = BRAF G469A (Class 2), HCT-116 BRAF−/− cells, DC50 at 50% degradation
# [4] = BRAF G469A (Class 2), HCT-116 BRAF−/− cells, observed Dmax relative to DMSO control
# [5] = BRAF G466V (Class 3), HCT-116 BRAF−/− cells, DC50 at 50% degradation
# [6] = BRAF G466V (Class 3), HCT-116 BRAF−/− cells, observed Dmax relative to DMSO control
# [7] = A375 (BRAF V600E, Class 1), DC50 at 50% degradation
# [8] = A375 (BRAF V600E, Class 1), observed Dmax, % protein degraded relative to DMSO control
# [9] = BRAF D594G, DC50 at 50%: fitted conc. at Y=50
# [10] = HCT-116, BRAF D594G, percentage protein degraded at maximal compound effect relative to DMSO
# [11] = Class 2, BRAF G469A, DC50 at 50%: fitted conc. at Y=50
# [12] = HCT-116, Class 2, BRAF G469A, percentage protein degraded at maximal compound effect relative to DMSO
# [13] = BRAF G466V, DC50 at 50%: fitted conc. at Y=50
# [14] = HCT-116, BRAF G466V, percentage protein degraded at maximal compound effect relative to DMSO
# [15] = A375 (BRAF V600E), DC50 at 50%: fitted conc. at Y=50
# [16] = A375 (BRAF V600E), percentage protein degraded at maximal compound effect relative to DMSO
# T1 sequence (P15056 whole entry D594G): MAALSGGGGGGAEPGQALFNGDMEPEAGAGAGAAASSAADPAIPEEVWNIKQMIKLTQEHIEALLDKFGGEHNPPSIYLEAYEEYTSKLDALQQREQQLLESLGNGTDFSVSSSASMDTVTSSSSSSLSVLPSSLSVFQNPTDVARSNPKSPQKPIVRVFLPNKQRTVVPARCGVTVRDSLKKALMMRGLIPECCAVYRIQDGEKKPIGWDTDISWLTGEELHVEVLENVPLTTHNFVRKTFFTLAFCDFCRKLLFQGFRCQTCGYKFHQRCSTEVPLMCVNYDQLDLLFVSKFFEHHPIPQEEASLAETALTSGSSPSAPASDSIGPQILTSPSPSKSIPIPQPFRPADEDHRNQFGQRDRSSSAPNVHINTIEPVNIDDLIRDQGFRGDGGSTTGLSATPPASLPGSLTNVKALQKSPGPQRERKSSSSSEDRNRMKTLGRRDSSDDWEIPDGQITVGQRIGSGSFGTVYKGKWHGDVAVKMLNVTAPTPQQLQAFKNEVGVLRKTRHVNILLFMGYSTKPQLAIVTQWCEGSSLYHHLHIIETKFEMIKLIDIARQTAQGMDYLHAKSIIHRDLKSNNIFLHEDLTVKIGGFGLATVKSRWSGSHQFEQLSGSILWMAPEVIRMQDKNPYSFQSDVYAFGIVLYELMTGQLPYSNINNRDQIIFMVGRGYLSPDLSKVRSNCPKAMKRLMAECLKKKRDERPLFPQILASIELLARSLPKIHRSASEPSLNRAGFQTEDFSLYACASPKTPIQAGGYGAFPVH
# T2 sequence (P15056 whole entry G469A): as the sequence (P15056 whole entry D594G) above, with G469A, G594D counted along it
# T4 sequence (P15056 whole entry V600E, the tested form may be a part): as the sequence (P15056 whole entry D594G) above, with G594D, V600E counted along it
# T3 sequence (P15056 whole entry G466V): as the sequence (P15056 whole entry D594G) above, with G466V, G594D counted along it
SMILES,DC50 (BRAF D594G; [1]) [nM],Dmax (BRAF D594G; [2]) [%],DC50 (BRAF G469A; [3]) [nM],Dmax (BRAF G469A; [4]) [%],DC50 (BRAF G466V; [5]) [nM],Dmax (BRAF G466V; [6]) [%],DC50 (BRAF V600E; [7]) [nM],Dmax (BRAF V600E; [8]) [%],DC50 (BRAF D594G; [9]) [nM],Dmax (BRAF D594G; [10]) [%],DC50 (BRAF G469A; [11]) [nM],Dmax (BRAF G469A; [12]) [%],DC50 (BRAF G466V; [13]) [nM],Dmax (BRAF G466V; [14]) [%],DC50 (BRAF V600E; [15]) [nM],Dmax (BRAF V600E; [16]) [%]
"C[C@@H]1CN(c2ccc(-n3cc(-c4cc(Cl)cc(NS(=O)(=O)N5CCCC5)c4F)c(-c4ccncc4)n3)nc2)CCN1CC1CCN(c2ccc([C@H]3CCC(=O)NC3=O)cn2)CC1 [Compound 325, N-[5-chloro-3-(1-{5-[(3R)-4-[(1-{5-[(3R)-2,6-dioxopiperidin-3-yl]pyridin-2-yl}piperidin-4-yl)methyl]-3-methylpiperazin-1-yl]pyridin-2-yl}-3-(pyridin-4-yl)-1H-pyrazol-4-yl)-2-fluorophenyl]pyrrolidine-1-sulfonamide]",< 10,> 70,10 to 50,> 70,< 10,> 70,< 10,> 70,–,–,–,–,–,–,–,–
"CCC(C)S(=O)(=O)Nc1cc(Cl)cc(-c2cn(-c3ccc(N4CCN(CC5CCN(c6ccc([C@H]7CCC(=O)NC7=O)cn6)CC5)CC4)cc3)nc2-c2ccncc2)c1F (mixture of isomers) [Compound 327, (RS)—N-(5-chloro-3-(1-(4-(4-((1-(5-((R)-2,6-dioxopiperidin-3-yl)pyridin-2-yl)piperidin-4-yl)methyl)piperazin-1-yl)phenyl)-3-(pyridin-4-yl)-1H-pyrazol-4-yl)-2-fluorophenyl)butane-2-sulfonamide]",< 10,> 70,10 to 50,> 70,< 10,> 70,< 10,> 70,–,–,–,–,–,–,–,–
"CCCS(=O)(=O)Nc1cccc(-c2cn(-c3ccc(C4CCN(CC5CCN(c6ccc(C7CCC(=O)NC7=O)cn6)CC5)CC4)cc3)nc2-c2ccncc2)c1F (racemic) [Compound 24, Rac-N-{3-[1-(4-{1-[(1-{5-[(3R)-2,6-dioxopiperidin-3-yl]pyridin-2-yl}piperidin-4-yl)methyl]piperidin-4-yl}phenyl)-3-(pyridin-4-yl)-1H-pyrazol-4-yl]-2-fluorophenyl}propane-1-sulfonamide]",–,–,–,–,–,–,–,–,> 500,30 to 70,> 500,< 30,10 to 50,30 to 70,10 to 50,> 70

# Results, then the compound that gave them:
DC50 (BRAF D594G; [1]) [nM],Dmax (BRAF D594G; [2]) [%],DC50 (BRAF G469A; [3]) [nM],Dmax (BRAF G469A; [4]) [%],DC50 (BRAF G466V; [5]) [nM],Dmax (BRAF G466V; [6]) [%],DC50 (BRAF V600E; [7]) [nM],Dmax (BRAF V600E; [8]) [%],DC50 (BRAF D594G; [9]) [nM],Dmax (BRAF D594G; [10]) [%],DC50 (BRAF G469A; [11]) [nM],Dmax (BRAF G469A; [12]) [%],DC50 (BRAF G466V; [13]) [nM],Dmax (BRAF G466V; [14]) [%],DC50 (BRAF V600E; [15]) [nM],Dmax (BRAF V600E; [16]) [%],SMILES
–,–,–,–,–,–,–,–,> 500,30 to 70,> 500,< 30,> 500,< 30,50 to 500,30 to 70,"CCCS(=O)(=O)Nc1cccc(-c2nc(C(C)(C)C3CCN(C(=O)C4CN(C5CCN(c6ccc7c(c6)C(=O)N(C6CCC(=O)NC6=O)C7=O)CC5)C4)CC3)sc2-c2ccnc(N)n2)c1F (racemic) [Compound 243, Rac-N-{3-[5-(2-aminopyrimidin-4-yl)-2-(2-{1-[1-(1-{2-[(3R)-2,6-dioxopiperidin-3-yl]-1,3-dioxo-2,3-dihydro-1H-isoindol-5-yl}piperidin-4-yl)azetidine-3-carbonyl]piperidin-4-yl}propan-2-yl)-1,3-thiazol-4-yl]-2-fluorophenyl}propane-1-sulfonamide]"
–,–,–,–,–,–,–,–,> 500,30 to 70,> 500,< 30,> 500,< 30,< 10,> 70,"CCN(C)S(=O)(=O)Nc1cccc(-c2nc(C(C)(C)C)sc2-c2ccnc(Nc3ccc(N4CCN(C(=O)C5(C)CCN(c6ccc(C7CCC(=O)NC7=O)cn6)CC5)CC4)cn3)n2)c1F (racemic) [Compound 42, Rac-(3S)-3-[6-(4-{4-[6-({4-[2-tert-butyl-4-(3-{[ethyl(methyl)sulfamoyl]amino}-2-fluorophenyl)-1,3-thiazol-5-yl]pyrimidin-2-yl}amino)pyridin-3-yl]piperazine-1-carbonyl}-4-methylpiperidin-1-yl)pyridin-3-yl]piperidine-2,6-dione]"
